Here are results for ten molecules from US5478818A, “Estradiol derivative-alkylating agent conjugate with reduced hormonal activity, process for preparing the same, compounds useful for the preparation thereof, and growth inhibiting composition containing the conjugate or estradiol derivative” (priority 1993, dated 1995).

The subject of one experiment is SC-115 cells. The experiment in a line: Growth inhibiting effect in testosterone-added system using SC-115 cells (tritium-labeled thymidine uptake). It is filed as cell-based. As for the experimental part:
Uptake of tritium-labeled thymidine was examined in a serum free culture system using testosterone-dependent SC-115 cells. Strong inhibitory effects of the conjugate and the estradiol derivatives were shown.
The SC-115 cells were cultured on a 96-well microplate (5,000 cells/well) for 24 hours with a culture medium (200 μl/well; Ham's F-12/MEM-E (98% ), dextran-treated fetal calf serum (2%) and testosterone (1×10^-8 M)). The culture medium was replaced with fresh medium containing the test compound (Ham's F-12/MEM-E, bovine serum albumin (0.1%), testosterone (1×10^-8 M) and test compound of various concentrations). The culture medium was replaced every two days, and culture was continued for 7 days. Thymidine (1 μci/ml, tritium-labeled)was added, and 5 hours later, the culture medium was removed. The cells were washed with PBS and then washed twice with ice-cold trichloroacetic acid (10%). Then the cells were dissolved in 0.5N sodium hydroxide and neutralized with 0.5N hydrochloric acid. The radioactivity of the neutralized solution was measured by a liquid scintillation counter to determine the growth inhibiting effect (IC50).

For the next experiment, the system named is uterus. The experiment in a line: Estrogen action (uterine weight tests). It is filed as in vivo. The following applies: once hypodermically, 3-week-old Wistar female rats, 24 hours; higher = weaker estrogen action. As for the experimental part: The estrogen action of the conjugate and the estradiol derivative were each examined according to the uterine weight tests. The estrogen action was found diminished.
The test compounds and estradiol dissolved in sesame oil (containing 3% benzyl alcohol) were each administered once hypodermically to 3-week-old Wistar female rats. 24 hours later, the uterus of each test rat was removed and its weight (ratio to the body weight) was measured. From the relation between the uterus weight/body weight ratio and the dosage, the compound dosage that gives a uterus weight/body weight ratio twice that in the control group was determined. The dosages of the test compounds are shown as a ratio to the dosage of estradiol. 3-Benzoyloxy-1,3,5(10)-estratriene-17β-[4-[p-[bis (2-chloroethyl)amino]phenyl]-butyryloxy]acetate was used as a comparative compound.

In the next experiment the test system is DU-145 cells. Nature of the experiment: Growth inhibiting effect in bFGF-added system using DU-145 cells (tritium-labeled thymidine uptake). It is filed as cell-based. As for the experimental part: Uptake of tritium-labeled thymidine was examined in a serum free culture system using bFGF-dependent DU-145 cells. Strong inhibitory effects of the conjugate and the estradiol derivative were shown.
The DU-145 cells were cultured on a 96-well microplate (5,000 cells/well) for 24 hours with a culture medium (200 μl/well; Ham's F-12/MEM-E (98%) and dextran-treated fetal calf serum (2%)). Then the culture medium was replaced with fresh medium containing the test compound (Ham's F-12/MEM-E, bovine serum albumin (0.1%), bovine pituitary-derived bFGF (1 ng/ml) and the test compound of various concentrations). Culture with this medium was continued for 4 days. Thymidine (1 μci/ml, tritium-labeled) was added, and 5 hours layer, the culture medium was removed. The cells were washed with PBS and then washed twice with ice-cold trichloroacetic acid (10%). Then the cells were dissolved in 0.5N sodium hydroxide and neutralized with 0.5N hydrochloric acid. The radioactivity of the neutralized solution was measured by a liquid scintillation counter to determine the growth inhibiting effect (IC50).

The mark [1] stands for this setting: SC-115 cells, testosterone 1×10^-8 M, 7 days, read-out: IC50.
The mark [2] stands for this setting: DU-145 cells, bFGF 1 ng/ml, 4 days, read-out: IC50.
Setting [3] is: 168 h, SC-115 cells, testosterone 1×10^-8 M, 7 days, read-out: IC50.

Like-named read-outs stand apart in the source and are kept apart here.

As for “1-[3-benzoyloxy-1,3,5(10)-estratriene-1-methyl-17β-oxy]-2-[4-[p-[bis(2-hydroxyethyl)amino]phenyl]-butoxy]ethane [Compound I-3]”, the half-inhibitory concentration (IC50) (commonly the point on the concentration scale where inhibition reaches its midpoint) amounted to 0.2 µM in the experiment with SC-115 cells (setting [1]) and 9.2 µM in the experiment on DU-145 cells (setting [2]). Moreover, the “Dosage that gives a uterus wt/body wt ratio twice that in control group (ratio to estradiol dosage)” value in the experiment with uterus is recorded as > 7000 ratio to estradiol dosage.
As to `C[C@]12CC[C@@H]3c4ccc(OC(=O)c5ccccc5)cc4CC[C@H]3[C@@H]1CC[C@@H]2OC(=O)COC(=O)CCCc1ccc(N(CCCl)CCCl)cc1` [Comparative compound, 3-Benzoyloxy-1,3,5(10)-estratriene-17β-[4-[p-[bis (2-chloroethyl)amino]phenyl]-butyryloxy]acetate, reference compound], the half-inhibitory concentration (IC50) was 2.6 µM in the experiment with SC-115 cells (168 h) and > 10 µM with DU-145 cells (Homo sapiens, DU-145, 96 h, read-out: IC50 (ND*: no inhibiting action observed)). Also, the “Dosage that gives a uterus wt/body wt ratio twice that in control group (ratio to estradiol dosage)” value with uterus is 200 ratio to estradiol dosage.
On to `C[C@]12CC[C@@H]3c4ccc(OCc5ccccc5)cc4CC[C@H]3[C@@H]1CC[C@@H]2OCCOCCCCc1ccc(N(CCCl)CCCl)cc1` [Compound I-1, 1-[3-benzyloxy-1,3,5(10) -estratriene-17β-oxy]-2-[4-[p-[bis (2-chloroethyl)amino]phenyl]butoxy]ethane], for which the IC50 with SC-115 cells (setting [1]) is 1.2 µM; with DU-145 cells (setting [2]) it was 4.6 µM. The “Dosage that gives a uterus wt/body wt ratio twice that in control group (ratio to estradiol dosage)” value in the experiment with uterus is recorded as > 7000 ratio to estradiol dosage.
The matching figures for `C[C@]12CC[C@@H]3c4ccc(OC(=O)c5ccccc5)cc4CC[C@H]3[C@@H]1CC[C@@H]2OCCOCCCCc1ccc(N(CCCl)CCCl)cc1` [Compound I-2, 1-[3-benzoyloxy-1,3,5(10)-estratriene-17β-oxy]-2-[4-[p-[bis (2-chloroethyl)amino]phenyl]butoxy]ethane]: 1.3 µM, 7.8 µM and > 7000 ratio to estradiol dosage.
On to `C[C@]12CC[C@@H]3c4ccc(OC(=O)c5ccccc5)cc4CC[C@H]3[C@@H]1CC[C@@H]2OCCOCCCCc1ccc(N(CCO)CCO)cc1` [Compound I-4], for which the IC50 in the experiment with SC-115 cells (setting [1]) was determined as 0.8 µM. The “Dosage that gives a uterus wt/body wt ratio twice that in control group (ratio to estradiol dosage)” value in the experiment with uterus is given as 1400 ratio to estradiol dosage.
The matching figures for `C[C@]12CC[C@@H]3c4ccc(OCc5ccccc5)cc4CC[C@H]3[C@@H]1CC[C@@H]2OCCOC(=O)CCCc1ccc(N(CCCl)CCCl)cc1` [Compound I-5, 1-[3-benzyloxy-1,3,5(10)-estratriene-17β-oxy]-2-[4-[p-[bis(2-chloroethyl)amino]phenyl]-butyryloxy]ethane]: 0.5 µM and > 7000 ratio to estradiol dosage.
In the case of `C[C@]12CC[C@@H]3c4ccc(OC(=O)c5ccccc5)cc4CC[C@H]3[C@@H]1CC[C@@H]2OCCOC(=O)CCCc1ccc(N(CCCl)CCCl)cc1` [Compound I-6, 1-[3-benzoyloxy-1,3,5(10)-estratriene-17β-oxy]-2-[4-[p-[bis (2-chloroethyl)amino]phenyl]-butyryloxy]ethane], the IC50 with SC-115 cells (setting [1]) was 1.5 µM. Further, the “Dosage that gives a uterus wt/body wt ratio twice that in control group (ratio to estradiol dosage)” value in the experiment with uterus is reported as > 7000 ratio to estradiol dosage.
As to `C[C@]12CC[C@@H]3c4ccc(OCc5ccccc5)cc4CC[C@H]3[C@@H]1CC[C@@H]2OCCO` [II-1, 2-[3-benzyloxy-1,3,5 (10) -estratriene-17β-oxy]ethanol], the IC50 came to 0.2 µM with SC-115 cells (setting [3]) and 2.9 µM in the experiment on DU-145 cells (Homo sapiens, 96 h, DU-145 cells, bFGF 1 ng/ml, 4 days, read-out: IC50). In the experiment on uterus, the “Dosage that gives a uterus wt/body wt ratio twice that in control group (ratio to estradiol dosage)” value is reported as 200 ratio to estradiol dosage.
With `Cc1cc(OCc2ccccc2)cc2c1[C@H]1CC[C@]3(C)[C@@H](OCCO)CC[C@H]3[C@@H]1CC2` [II-2, 2-[3-benzyloxy-1,3,5(10) -estratriene-1-methyl-17β-oxy]ethanol], in the experiment with SC-115 cells (setting [3]), the IC50 came out at 0.7 µM. For the same molecule, the “Dosage that gives a uterus wt/body wt ratio twice that in control group (ratio to estradiol dosage)” value with uterus is > 7000 ratio to estradiol dosage.
Regarding `Cc1cc(OC(=O)c2ccccc2)cc2c1[C@H]1CC[C@]3(C)[C@@H](OCCO)CC[C@H]3[C@@H]1CC2` [II-3, 2-[3-benzoyloxy-1,3,5(10) -estratriene-1-methyl-17β-oxy]ethanol], the IC50 in the experiment with SC-115 cells (setting [3]) is 1.5 µM. Besides, the “Dosage that gives a uterus wt/body wt ratio twice that in control group (ratio to estradiol dosage)” value in the experiment on uterus was > 7000 ratio to estradiol dosage.
